Source: US5578570A, “Method of treating septic shock using thymosin β4” (The George Washington University Medical Center, priority 1994, dated 1996)

Assays:
Assay type in all cases: in vivo
endotoxic mice = assay: Survival of Swiss Webster mice following lethal endotoxin dose and Tβ4; conditions: for Survival (No. mice alive): Table VII, immediately following, 2 and 4 hrs after endotoxin, 10 mice at 0 hrs
Protocol: Swiss-Webster mice 4-6 weeks of age (20-25 g) were housed 6 per cage. The mice were divided into 2 groups: endotoxic mice (endotoxin 60 mg/kg i.p. in acute treatment) and endotoxic mice treated with Tβ4, 5 minutes and 2, 4, 6, 8, 10, 12, 14, 16, 18, 20, 22, 24 hours post administration of the endotoxin. Survival was recorded 2 times a day for 7 days.
Swiss-Webster mice 4-6 weeks of age (20-25 g) were divided into groups as follows.
1. Mice treated with a lethal dose of endotoxin (60 mg/kg).
2. […]
3. […]
4. […]

6-keto-PGF1α = 6-keto-PGF1α plasma levels in mice after lethal dose of endotoxin; conditions: Table XI, endotoxin 60 mg/kg + Tβ4 100 μg administered simultaneously
Text: (§1) Using the same methods and materials as in examples 1-3, the effect which Tβ4 has on blood levels of IL-1α, TNF-α, PAG, Txβ2 and 6-keto-PGF1 α, which are pathological mediators of endotoxin induced lethality, was studied.

IL1 α = assay: IL1α levels in a septic shock model in rat; conditions: rats with septic shock + Tβ4 1 mg/rat × 3
Text: (§2) Using a septic shock model in rats (Sprague-Dawley, male, 200-225 g each), the effect of thymosin β4 alone and together with antibiotics was studied. Peritonitis was induced in rats in the following way. A 1-cm incision was made into the peritoneal which exposed the cecum. A tight ligature was placed around the cecum with 4-0 suture distal to the insertion of the small bowel, forming an area of devitalized tissue while maintaining bowel continuity. A puncture wound was made with 16-gauge needle into the anti-mesenteric surface of the cecum and a small amount of fecal contents was expressed through the wound. The cecum was replaced into the peritoneal cavity, and the anterior peritoneal wall and skin were closed with surgical staples. Each animal was given a bolus of normal saline (15 ml/kg) for hydration and allowed to recover overnight.
(§3) The results presented in Tables XV to XVIII below show effects of Tβ4 respectively on rat cytokine levels, blood malonyldialdehyde levels, glutathione levels and arachidonic acid metabolic levels.

6-keto-PGF1 = 6-keto-PGF1 levels in a septic shock model in rat; conditions: rats with septic shock + Tβ4 1 mg/rat × 3
Text: as §2, §3

glutathione = assay: Glutathione levels in a rat septic shock model; conditions: for RBC GSH: rats with septic shock + 1 mg/rat × 3
Text: as §2, §3

PAF = PAF blood levels in mice after lethal dose of endotoxin; conditions: endotoxin 60 mg/kg + Tβ4 100 μg administered simultaneously; for PAF (plasma levels): Table IX; for PAF (serum levels): Table XII
Text: as §1

T × β2 = assay: T×β2 plasma levels in mice after lethal dose of endotoxin; conditions: Table X, endotoxin 60 mg/kg + Tβ4 100 μg administered simultaneously
Text: as §1

Rats with Septic Shock = assay: Survival of Sprague-Dawley rats in septic shock model (peritonitis); conditions: for Survival of rats (number alive): Table XIV, septic shock + antibiotic (gentamicin sulfate, 1 mg/rat) + thymosin β4 1 mg/rat × 3 (0, 2, 4 hr post induction of peritonitis), 10 rats at 0 hr; for Number of Rats Alive: septic shock + Tβ4 1 mg/rat × 3, 10 rats at 0 h
Text: as §2

[1] = system: blood free radical levels; assay: Blood free radical levels; conditions: compared with SOD
malonyldialdehyde = assay: Lipid peroxidation (blood malonyldialdehyde) in a septic shock model in rat; conditions: for Blood Levels of malonyldialdehyde: rats with septic shock + Tβ4 1 mg/rat × 3
Text: as §2, §3

[2] = during sepsis, with Tβ4 administration

Substance: Thymosin β4 [Tβ4]
- Survival (No. mice alive) (endotoxic mice; endotoxin 60 mg/kg + Tβ4 20 μg 3x i.p., 72 hrs): 4
- Survival (No. mice alive) (endotoxic mice; endotoxin 60 mg/kg + Tβ4 20 μg 3x i.p., 96 hrs): 3
- Survival (No. mice alive) (endotoxic mice; endotoxin 60 mg/kg + Tβ4 20 μg 3x i.p., 5 days): 3
- Survival (No. mice alive) (endotoxic mice; endotoxin 60 mg/kg + Tβ4 20 μg 3x i.p., 6 days): 3
- Survival (No. mice alive) (endotoxic mice; endotoxin 60 mg/kg + Tβ4 50 μg 3x i.p., 24 hrs): 9
- Survival (No. mice alive) (endotoxic mice; endotoxin 60 mg/kg + Tβ4 50 μg 3x i.p., 48 hrs): 7
- Survival (No. mice alive) (endotoxic mice; endotoxin 60 mg/kg + Tβ4 50 μg 3x i.p., 72 hrs): 7
- Survival (No. mice alive) (endotoxic mice; endotoxin 60 mg/kg + Tβ4 50 μg 3x i.p., 96 hrs): 7
- Survival (No. mice alive) (endotoxic mice; endotoxin 60 mg/kg + Tβ4 50 μg 3x i.p., 5 days): 7
- Survival (No. mice alive) (endotoxic mice; endotoxin 60 mg/kg + Tβ4 50 μg 3x i.p., 6 days): 7
- survival rate (endotoxic mice; Tβ4 administered 3 times post administration of endotoxin): 100%
- most effective protective dose (endotoxic mice; administered three times): 100 µg
- survival of mice treated with endotoxin (in words) (endotoxic mice; administered three times in doses of 50 μg and 20 μg): partially increased the survival
- survival rate (endotoxic mice; lethal endotoxin shock, endotoxin 60 mg/kg i.p., Example 1): ≤ 100%
- 6-keto-PGF1α (plasma levels) (6-keto-PGF1α; 0.5 hr.): 141 ± 9 pg/mL
- 6-keto-PGF1α (plasma levels) (6-keto-PGF1α; 1 hr): 261 ± 23 pg/mL
- 6-keto-PGF1α (plasma levels) (6-keto-PGF1α; 2 hr): 147 ± 19 pg/mL
- 6-keto-PGF1α (plasma levels) (6-keto-PGF1α; 3 hr): 121 ± 13 pg/mL
- IL1 α (IL1 α): 853 ± 62 pg/mL
- 6-keto-PGF1 (6-keto-PGF1): 829 ± 59 pg/mL
- circulating blood levels of glutathione (in words) (glutathione; [2]): returns circulatory gluthathine levels to normal or about normal
- RBC GSH (glutathione; first value column): 1.45 ± 0.11 μmoles/ml cells
- RBC GSH (glutathione; second value column): 1.39 ± 0.12 μmoles/ml cells
- PAF (plasma levels) (PAF; 0.5 hr.): 63 ± 7 pg/mL
- PAF (plasma levels) (PAF; 1 hr): 161 ± 17 pg/mL
- PAF (plasma levels) (PAF; 2 hr): 66 ± 5 pg/mL
- PAF (plasma levels) (PAF; 3 hr): 46 ± 5 pg/mL
- PAF (serum levels) (PAF; 1 hr): 807 pg/mL
- PAF (serum levels) (PAF; 3 hr): 591 pg/mL
- PAF (serum levels) (PAF; 5 hr): 496 pg/mL
- T × β2 (plasma levels) (T × β2; 0.5 hr.): 209 ± 9,5 pg/ml
- T × β2 (plasma levels) (T × β2; 1 hr): 607 ± 53 pg/mL
- T × β2 (plasma levels) (T × β2; 2 hr): 196 ± 18 pg/mL
- T × β2 (plasma levels) (T × β2; 3 hr): 112 ± 9 pg/mL
- Survival of rats (number alive) (Rats with Septic Shock; 24 hr): 4
- Survival of rats (number alive) (Rats with Septic Shock; 48 hr): 3
- Survival of rats (number alive) (Rats with Septic Shock; 72 hr): 3
- Number of Rats Alive (Rats with Septic Shock; Table XIX, 24 h): 3
- Number of Rats Alive (Rats with Septic Shock; Table XIX, 48 h): 3
- Number of Rats Alive (Rats with Septic Shock; Table XIX, 72 h): 3
- Number of Rats Alive (Rats with Septic Shock; Table XX, 24 h): 4
- Number of Rats Alive (Rats with Septic Shock; Table XX, 48 h): 3
- Number of Rats Alive (Rats with Septic Shock; Table XX, 72 h): 3
- blood free radical levels (in words) [1]: reduce blood free radical levels almost as much as SOD
- peroxidation of lipids in blood (malonyldialdehyde), in words (malonyldialdehyde; [2]): returned to normal or about normal
- Blood Levels of malonyldialdehyde (malonyldialdehyde; first value column): 19.6 ± 1.7 nNol MDA
- Blood Levels of malonyldialdehyde (malonyldialdehyde; second value column): 16.8 ± 1.5 nNol MDA
